For series [1], the system named is CH1R. Put plainly: Inhibition of cell proliferation, human cancer cell lines in culture (CH1R). The series is classed as cell-based. Here is the method: (§1) The complexes of the invention were tested against human cancer cell lines grown in cell culture according to established testing procedures (described by Kelland et al, Cancer Research 53, 2581-2586, June 1993). […] The results are given in concentrations (μM) necessary to achieve a 50% decrease in cell proliferation, with resistance factors in brackets for the cisplatin-resistant cell lines.

The subject of series [2] is A2780R. Put plainly: Inhibition of cell proliferation, human cancer cell lines in culture (A2780R). The series is classed as cell-based. As for the experimental part:
as §1

The subject of series [3] is A2780. The series can be described thus: Inhibition of cell proliferation, human cancer cell lines in culture (A2780). The series is classed as cell-based.
Series [4] relates to CH1. The series can be described thus: Inhibition of cell proliferation, human cancer cell lines in culture (CH1). The series is classed as cell-based.
The test system of series [5] is 41MR. Put plainly: Inhibition of cell proliferation, human cancer cell lines in culture (41MR). The class given is cell-based. Here is the method:
as §1

Series [6] relates to 41M. The series can be described thus: Inhibition of cell proliferation, human cancer cell lines in culture (41M). The class given is cell-based. To be noted: read-out: concentration necessary to achieve a 50% decrease in cell proliferation.
The test system of series [7] is SKOV3. The series can be described thus: Inhibition of cell proliferation, human cancer cell lines in culture (SKOV3). The series is classed as cell-based. Here is the method:
as §1

In series [8] the test system is HX62. The series can be described thus: Inhibition of cell proliferation, human cancer cell lines in culture (HX62). The series is classed as cell-based. Here is the method: as §1
For series [9], the system named is ADJ/PC6. Put plainly: ADJ/PC6 tumour mass reduction in Balb C mice. The series is classed as in vivo.
The subject of series [10] is CH1 xenograft. Put plainly: CH1 xenograft antitumour activity. The conditions noted are these: for antitumour effect and tumour regrowth in the CH1 xenograft: derived from cell line sensitive to cisplatin. The series is classed as in vivo. The source says: It has been reported by Tobe et al (Wadley Medical Bulletin 7, 1, 114-135) that steric effects of bulky substituents close to the platinum atom have a profound effect upon the rate of substitution reactions there. At that time no systematic study of the way in which variation of the substituent on the primary amine affects the rate and extend of bonding of the Pt complex to DNA had been undertaken.

The conditions of series [11]: mouse, in vivo, po.
Where [12] appears, read: CH1R, bred to be resistant to cisplatin; read-out: concentration necessary to achieve a 50% decrease in cell proliferation.
[13] abbreviates: A2780R, bred to be resistant to cisplatin; read-out: concentration necessary to achieve a 50% decrease in cell proliferation.
Setting [14] is: A2780; read-out: concentration necessary to achieve a 50% decrease in cell proliferation.
Where [15] appears, read: CH1; read-out: concentration necessary to achieve a 50% decrease in cell proliferation.
The mark [16] stands for this setting: 41MR, bred to be resistant to cisplatin; read-out: concentration necessary to achieve a 50% decrease in cell proliferation.
Where [17] appears, read: inherently cisplatin sensitive line.
Setting [18] is: SKOV3, inherently resistant to cisplatin; read-out: concentration necessary to achieve a 50% decrease in cell proliferation.
[19] abbreviates: SKOV3 IC50 divided by the IC50 for the 41M line.
Where [20] appears, read: HX62, inherently resistant to cisplatin; read-out: concentration necessary to achieve a 50% decrease in cell proliferation.
The mark [21] stands for this setting: HX62 IC50 divided by the IC50 for the 41M line.
Setting [22] is: Homo sapiens; read-out: concentration necessary to achieve a 50% decrease in cell proliferation.
Where [23] appears, read: Homo sapiens, read-out: concentration necessary to achieve a 50% decrease in cell proliferation.

Like-named read-outs stand apart in the source and are kept apart here.

In the case of `N.N.O=C([O-])C1(C(=O)[O-])CCC1.[Pt+2]` [Carboplatin, reference compound], the resistance factor result is recorded as “(4.6)” in series [1] (CH1R versus CH1); “(14)” in series [2] (A2780R versus A2780); “(2.7)” in [5] (41MR versus 41M); “(11)” in [7] (setting [19]); “(26)” in series [8] (setting [21]). The IC50 in series [1] (setting [12]) was 6 µM; in [2] (setting [13]), 37.4 µM; in [3] (setting [14]), 2.6 µM; in [4] (setting [15]), 1.3 µM; in [5] (setting [16]), 8.8 µM; in series [6] (setting [17]), 3.3 µM. Further, the IC50 turned out to be 37.7 µM in [7] (setting [18]) and 85 µM in [8] (setting [20]).
With `N.N.[Cl][Pt][Cl]` [Cisplatin, [PtCl2 (NH3)2], reference compound], the “ED90; dose required to reduce tumour mass by 90%” value in [9] (ADJ/PC6, Daily × 5 (i.p.)) was found to be 0.2 mg/kg; in series [9] (ADJ/PC6, Single dose (i.p.)) it was 1.6 mg/kg; in [9] (ADJ/PC6, Single dose (p.o.)), 24 mg/kg. In addition, the resistance factor result in series [1] (CH1R versus CH1) was “(3.7)”; in series [2] (A2780R versus A2780), “(22)”; in [5] (41MR versus 41M), “(4.6)”; in [7] (setting [19]), “(10.5)”; in [8] (setting [21]), “(37.8)”. Further, the IC50 came to 0.44 µM in series [1] (setting [12]); 7.8 µM in series [2] (setting [13]); 0.35 µM in [3] (setting [14]); 0.12 µM in [4] (setting [15]); 1.9 µM in [5] (setting [16]); 0.41 µM in series [6] (setting [17]). Further, the IC50 in series [7] (setting [18]) is 4.3 µM; in [8] (setting [20]) it was 15.5 µM. For the same compound, in series [10], the “antitumour effect and tumour regrowth in the CH1 xenograft” value is given as “significant activity at the maximum tolerated dose, however the tumour does grow back”.
In the case of `Cc1cccc[n+]1[Pt-2]([NH3+])([Cl])[Cl]` [Example 1, (SP-4-3)-amminedichloro(2-methylpyridine) platinum(II)], the “ED90; dose required to reduce tumour mass by 90%” value in series [9] (ADJ/PC6, Daily × 5 (i.p.)) is 0.8 mg/kg; in series [9] (ADJ/PC6, Single dose (i.p.)), 3 mg/kg; in [9] (ADJ/PC6, Single dose (p.o.)), 6.2 mg/kg. In addition, the resistance factor result in [1] (CH1R versus CH1) was “(1.9)”; in [2] (A2780R versus A2780), “(3.4)”; in [5] (41MR versus 41M) it was “(1.2)”; in [7] (setting [19]), “(4.3)”; in [8] (setting [21]), “(9.8)”. Also, the IC50 in [1] (setting [12]) was 3.7 µM; in series [2] (setting [13]), 4.4 µM; in series [3] (setting [14]), 1.28 µM; in series [4] (setting [15]), 1.9 µM; in series [5] (setting [16]), 5 µM; in series [6] (setting [17]), 4.1 µM. Besides, the IC50 in [7] (setting [18]) came to 17.5 µM; in series [8] (setting [20]) it was 40 µM. Moreover, the “LD50; dose causing 50% lethality” value in [11] is given as 560 mg/kg. Moreover, where the note is “mice receiving a LD10 dose”, the “histological evidence of organ toxicity” value is “No significant histological evidence of liver, kidney, spleen, gastrointestinal tract, brain or skin toxicity”. Besides, the “levels of ALP, ALT, gut disaccharides maltose, sucrose and trehalose, urea and creatinine compared to control mice” value (treated mice (LD50 dose)) is reported as “no significant differences”. The “antitumour effect and tumour regrowth in the CH1 xenograft” value in [10] was “exhibits a curative effect, and the tumour does not grow back”. In addition, the “potency in the CH1 xenograft compared with cisplatin” value in series [10] (greater dose is required than cisplatin) is “slightly less potency”.
For the compound `CCc1ccccn1` [Example 2, 2-ethylpyridine], the resistance factor result is “(2.6)” in series [1] (CH1R versus CH1); “(2.5)” in series [2] (A2780R versus A2780); “(1.7)” in [5] (41MR versus 41M); “(2.9)” in series [7] (setting [19]); “(10)” in series [8] (setting [21]). Moreover, the IC50 in [1] (setting [22]) is 3.6 µM; in series [2] (setting [22]) it was 11 µM; in series [3] (Homo sapiens, A2780; read-out: concentration necessary to achieve a 50% decrease in cell proliferation), 4.4 µM; in series [4] (Homo sapiens, CH1; read-out: concentration necessary to achieve a 50% decrease in cell proliferation), 1.4 µM; in series [5] (setting [22]), 5.7 µM; in series [6] (Homo sapiens), 3.4 µM. Moreover, the IC50 was 20 µM in series [7] (Homo sapiens, SK-OV-3; read-out: concentration necessary to achieve a 50% decrease in cell proliferation) and 36 µM in series [8] (Homo sapiens, HX62; read-out: concentration necessary to achieve a 50% decrease in cell proliferation).
For the compound `Cc1ccnc(C)c1.N.[Cl][Pt][Cl]` [Example 4, (SP-4-3)-amminedichloro(2,4-dimethylpyridine)platinum(II)], the resistance factor result in series [1] (CH1R versus CH1) is listed as “(2.3)”; in [5] (41MR versus 41M), “(0.4)”; in [7] (setting [19]), “(3)”; in [8] (setting [21]) it was “(1)”. For the same compound, the IC50 in series [1] (setting [12]) was 5.3 µM; in series [2] (setting [13]) it was 18 µM; in [3] (setting [14]), 6.6 µM; in series [4] (setting [15]), 2.3 µM; in [5] (setting [16]), 1.9 µM; in [6] (setting [17]) it was 4.25 µM. Also, the IC50 was found to be 14 µM in series [7] (setting [18]) and 4.9 µM in series [8] (setting [20]).
For the compound `CC(C)c1ccccn1` [Example 5, 2-isopropylpyridine], the resistance factor entry in series [1] (CH1R versus CH1) is recorded as “(1.7)”; in series [2] (A2780R versus A2780), “(3.6)”; in series [5] (41MR versus 41M), “(0.9)”; in [7] (setting [19]) it was “(3.3)”; in [8] (setting [21]) it was “(8)”. For the same compound, the IC50 in [1] (setting [23]) was determined as 4.2 µM; in [2] (setting [23]) it was 14 µM; in series [3] (Homo sapiens, A2780, read-out: concentration necessary to achieve a 50% decrease in cell proliferation) it was 3.9 µM; in [4] (Homo sapiens, CH1, read-out: concentration necessary to achieve a 50% decrease in cell proliferation) it was 2.4 µM; in series [5] (setting [23]), 5.6 µM; in [6] (Homo sapiens) it was 6.1 µM. For the same compound, the IC50 was 20 µM in [7] (Homo sapiens, SK-OV-3, read-out: concentration necessary to achieve a 50% decrease in cell proliferation) and 49 µM in [8] (Homo sapiens, HX62, read-out: concentration necessary to achieve a 50% decrease in cell proliferation).
In the case of `Cc1cc[n+]([Pt-2]([NH3+])([OH])([OH])([Cl])[Cl])c(C)c1` [Example 7, (OC-6-43)-amminedichlorodihydroxo(2,4-dimethylpyridine)platinum(IV)], the resistance factor entry is reported as “(2.5)” in series [1] (CH1R versus CH1); “(2.1)” in series [2] (A2780R versus A2780); “(2.2)” in [5] (41MR versus 41M); “(5.9)” in series [7] (setting [19]); “(9)” in series [8] (setting [21]). The IC50 came to 8.9 µM in [1] (setting [12]); 30 µM in series [2] (setting [13]); 14 µM in series [3] (setting [14]); 3.1 µM in series [4] (setting [15]); 17.5 µM in series [5] (setting [16]); 8 µM in series [6] (setting [17]). For the same compound, the IC50 was 47 µM in series [7] (setting [18]) and 72 µM in series [8] (setting [20]).

(Values after patent publication USRE41209E1, “Platinum complexes” (Genzyme Corporation, priority 1996, dated 2010).)
